# Measured values taken from article PMC11714206, “Massively Parallel Screening of Toll/Interleukin‐1 Receptor (TIR)‐Derived Peptides Reveals Multiple Toll‐Like Receptors (TLRs)‐Targeting Immunomodulatory Peptides” (Advanced Science, 2024).
# Target: T1, MyD88^TIR (Homo sapiens, UniProt Q99836)
# T1 construct: MyD88 (residues 148–296); 6xHis; made in house; host or cells: E. coli BL21 (DE3)
# Assay: T‐Surf phage library (P8 and P3) selection against MyD88^TIR, four rounds, NGS read counts
# Type: binding
# Conditions: for P8_MyD88 Rank (after) / P8_MyD88 Rank (before): P8 library; for Population: 4th round of selection against MyD88 TIR, share of NGS reads; for P3_MyD88 Rank (after) / P3_MyD88 Rank (before): P3 library
# Summary of the method: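 Four panning rounds on TIR domain adsorbed at 5 µg mL^−1; binding 1 h at 20–22 °C, elution with 100 mM HCl. Output: NGS read counts of round‐4 pools versus naïve library.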
# [1] = selection against MyD88 TIR, rank by count after grouping
# [2] = selection against MyD88 TIR, rank by count before grouping
# [3] = P8_MyD88 pool: P8 T-Surf phage library
# [4] = 4R selection against MyD88, rank after grouping
# [5] = 4R selection against MyD88, rank before grouping
# [6] = P3_MyD88: rank by count after grouping
# [7] = P3_MyD88: rank by count before grouping
# [8] = P3_MyD88 pool: P3 T-Surf phage library
# [9] = selection against MyD88, rank by count after grouping
# [10] = selection against MyD88, rank by count before grouping
# [11] = selection against MyD88, rank after grouping
# [12] = selection against MyD88, rank before grouping
# [13] = P8_MyD88: rank by NGS read count after grouping
# [14] = P8_MyD88: rank by NGS read count before grouping
# [15] = P8_MyD88: rank by count after grouping
# [16] = P8_MyD88: rank by count before grouping
# T1 sequence (Q99836 148-296): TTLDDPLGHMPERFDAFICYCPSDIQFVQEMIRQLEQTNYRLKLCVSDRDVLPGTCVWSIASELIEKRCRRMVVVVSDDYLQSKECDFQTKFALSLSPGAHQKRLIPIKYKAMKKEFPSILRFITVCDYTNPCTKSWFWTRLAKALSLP
sequence,measurement,setting,value
WDFASNMAQSWDRLYY,P8_MyD88 Rank (after),[1],246
same,P8_MyD88 Rank (before),[2],1595
WMRALAYIVNIVGESS,P8_MyD88 Rank (after),[1],268
same,P8_MyD88 Rank (before),[2],529
DPQDLQWFYERLVSLL,Population,[3],0.03%
WALDELWHILRALGLF,P8_MyD88 Rank (after),[4],631
same,P8_MyD88 Rank (before),[5],1426
DTILEKVQSIAPELLR,Rank (after),[6],401
same,Rank (before),[7],2092
SNFREGLWRLLELSKK,Population,[8],0.00408%
DPQDLQWFCERLVSLF,P8_MyD88 Rank (after),[1],281
same,P8_MyD88 Rank (before),[2],2908
LVSHEISKKVKIFATI,P3_MyD88 Rank (after),[4],638
same,P3_MyD88 Rank (before),[5],2265
DTKLKKGESIAPELVL,Rank (after),[6],185
same,Rank (before),[7],972
ELDFSHFWLFDGQSGKDA,P8_MyD88 Rank (after),[1],216
same,P8_MyD88 Rank (before),[2],359
ELDFSHFWLFEARGDA,Population,[3],0.0224%
DHHLDLPRGKAIKPVILG,Population,[8],0.00291%
YYLDPSHLRKQSGW,P3_MyD88 Rank (after),[9],720
same,P3_MyD88 Rank (before),[10],1453
PQDLDWFYDRLVSLIL,P8_MyD88 Rank (after),[4],589
same,P8_MyD88 Rank (before),[5],3431
DHHLDLPRGKEIKPELLG,P3_MyD88 Rank (after),[1],245
same,P3_MyD88 Rank (before),[2],2038
PQEQVWFYERQVSLIV,P8_MyD88 Rank (after),[11],533
same,P8_MyD88 Rank (before),[12],3500
YAFTVHLHRYLVQRGG,Rank (after),[6],448
same,Rank (before),[7],1482
GFLYQALARDGFKIFM,Rank (after),[6],426
same,Rank (before),[7],1811
NQWRNSRTAAANLSGW,Rank (after),[6],122
same,Rank (before),[7],3476
NGHESENIKEIVDTIL,P3_MyD88 Rank (after),[1],212
same,P3_MyD88 Rank (before),[2],3377
RLLKWKEALHQFHSLVG,P3_MyD88 Rank (after),[1],277
same,P3_MyD88 Rank (before),[2],2580
LSRVPSVHDFRGLMSI,Rank (after),[6],416
same,Rank (before),[7],2389
YPQDLDWFYERLVSQF,P8_MyD88 Rank (after),[9],719
same,P8_MyD88 Rank (before),[10],2097
VQCGDPWCWEKLAYAM,P8_MyD88 Rank (after),[4],596
same,P8_MyD88 Rank (before),[5],2212
SNFREGLWRQQELSKK,Rank (after),[6],438
same,Rank (before),[7],3282
DSHESEIIKEIVDTIV,Rank (after),[6],163
same,Rank (before),[7],967
THSHNAVPAAANLSGW,Rank (after),[6],404
same,Rank (before),[7],3289
WDFASSSWALDELLRILY,P8_MyD88 Rank (after),[11],550
same,P8_MyD88 Rank (before),[12],1585
DPPDLDWCYQRLVNLP,Rank (after),[13],1026
same,Rank (before),[14],2628
DVVCDYLLPNLEGPAG,P8_MyD88 Rank (after),[4],606
same,P8_MyD88 Rank (before),[5],2555
SSFREGLWRLLKLNKK,P3_MyD88 Rank (after),[1],266
same,P3_MyD88 Rank (before),[2],3181
KEVEGWRDALPTVASL,P3_MyD88 Rank (after),[1],220
same,P3_MyD88 Rank (before),[2],3622
DHHLDLPSGKAIKPDILG,Rank (after),[6],107
same,Rank (before),[7],2044
DPQDLLRFYEHLVSLF,Rank (after),[15],472
same,Rank (before),[16],2901
SSFREGLWRLLELSQN,P3_MyD88 Rank (after),[11],544
same,P3_MyD88 Rank (before),[12],3171
LGYHWIDWEYYVGIEN,Rank (after),[13],992
same,Rank (before),[14],3275
WFLEPLEKILQAHGTT,P8_MyD88 Rank (after),[4],600
same,P8_MyD88 Rank (before),[5],1360
DPQDLALFYERLVSLF,P8_MyD88 Rank (after),[1],251
same,P8_MyD88 Rank (before),[2],2727
MEANSSRIWHRLLYSV,P8_MyD88 Rank (after),[9],769
same,P8_MyD88 Rank (before),[10],3687
YASYDDNDYYWVTHVLLSR,P8_MyD88 Rank (after),[4],638
same,P8_MyD88 Rank (before),[5],1808
DWVWDYLLQSGRPSG,Rank (after),[13],932
same,Rank (before),[14],2451
EAFAVHENISKKTLK,P3_MyD88 Rank (after),[4],611
same,P3_MyD88 Rank (before),[5],2194
ESILNHMRRSSQSIAN,Rank (after),[6],481
same,Rank (before),[7],2231
NQWRNALTATANLSGC,Rank (after),[6],419
same,Rank (before),[7],3517
YASCDDFDYYLETAVLLRHL,P8_MyD88 Rank (after),[11],570
same,P8_MyD88 Rank (before),[12],1770
DPQDLEWFYERLVSLFL,P8_MyD88 Rank (after),[1],244
same,P8_MyD88 Rank (before),[2],2882
DHHLDLPRGKAIKLEILG,Population,[8],0.00437%
EWIREQLRPALKNGW,Rank (after),[6],434
same,Rank (before),[7],2155
DPQGLDWFYERLFSQM,Rank (after),[15],396
same,Rank (before),[16],2679
DWVLDYLLPNLERPAG,Rank (after),[15],424
same,Rank (before),[16],2396
NQWRNALTAAANLA,Population,[8],0.00291%
DPQDLVWFYERLVSIV,Rank (after),[13],986
same,Rank (before),[14],2713
DFSHFWLFEAGGDAD,Rank (after),[13],946
same,Rank (before),[14],2377
NNFSAFLFEALFENGI,Rank (after),[15],181
same,Rank (before),[16],240
YTALTNRGFLTFRDNA,Rank (after),[6],180
same,Rank (before),[7],1650
QEVEGWRDALTKVASM,P3_MyD88 Rank (after),[1],226
same,P3_MyD88 Rank (before),[2],2893
DHHLDLPRGKAIKPAILR,Rank (after),[6],162
same,Rank (before),[7],2019
VQWDELLQILHARELF,Rank (after),[13],965
same,Rank (before),[14],2249
KNLFNELVSKNIVPL,P3_MyD88 Rank (after),[9],686
same,P3_MyD88 Rank (before),[10],3755
DPQDLDWFYERLFTQM,P8_MyD88 Rank (after),[1],267
same,P8_MyD88 Rank (before),[2],2763
YLKWGYRWYWDRLRFA,P3_MyD88 Rank (after),[11],543
same,P3_MyD88 Rank (before),[12],1576
ASSPWALYELVEILTA,P8_MyD88 Rank (after),[9],683
same,P8_MyD88 Rank (before),[10],2333
DPQDQEWLYERLFSQM,P8_MyD88 Rank (after),[4],619
same,P8_MyD88 Rank (before),[5],2971
SIWWILNELQEILNYQ,P8_MyD88 Rank (after),[11],542
same,P8_MyD88 Rank (before),[12],3800
DMQDIEWFYVKLIVSI,P8_MyD88 Rank (after),[9],754
same,P8_MyD88 Rank (before),[10],3064
EWIREQLRPELQERLP,Rank (after),[6],179
same,Rank (before),[7],2160
YASSTWWLRELLQIA,Rank (after),[15],147
same,Rank (before),[16],208
WSQPEFRAAMQAVLEL,P8_MyD88 Rank (after),[1],274
same,P8_MyD88 Rank (before),[2],530
WALSELVEILRARENM,P8_MyD88 Rank (after),[1],195
same,P8_MyD88 Rank (before),[2],254
YASYDDNDYYWVTPVLLRLV,Rank (after),[15],435
same,Rank (before),[16],1767
DSVCLDRLLYSLHVTE,P8_MyD88 Rank (after),[4],582
same,P8_MyD88 Rank (before),[5],3130
LKVESWRQALKERLP,Population,[8],0.00378%
DFLNWFIAPNSTVIEN,Rank (after),[15],457
same,Rank (before),[16],2364
PVAHDLSKKMKIFATI,Rank (after),[6],474
same,Rank (before),[7],2698
DRQDLVWPYERLVSLL,P8_MyD88 Rank (after),[9],698
same,P8_MyD88 Rank (before),[10],2599
GIFREGLWRLLELSKK,Rank (after),[6],105
same,Rank (before),[7],919
NQWRKALTSAANLSGW,P3_MyD88 Rank (after),[9],703
same,P3_MyD88 Rank (before),[10],3528
LVANEISKKIKIFAII,P3_MyD88 Rank (after),[11],533
same,P3_MyD88 Rank (before),[12],2319
NQWRNAQTAAANLNGW,P3_MyD88 Rank (after),[1],256
same,P3_MyD88 Rank (before),[2],3525
LADALERYGIMFIIDK,Rank (after),[15],184
same,Rank (before),[16],236
YLKVESWRQALEKAGKL,P3_MyD88 Rank (after),[1],268
same,P3_MyD88 Rank (before),[2],864
HLLREFDKKLITAFQD,P3_MyD88 Rank (after),[4],594
same,P3_MyD88 Rank (before),[5],2769
LKGGDPYFWSKLRYTM,Rank (after),[6],159
same,Rank (before),[7],2531
SGQAVTEDKLGWLSNP,P8_MyD88 Rank (after),[9],682
same,P8_MyD88 Rank (before),[10],1660
FFWMQLRSLLGTPGGL,P8_MyD88 Rank (after),[1],194
same,P8_MyD88 Rank (before),[2],252
GNDVLGRKGLRVGSKD,Rank (after),[6],437
same,Rank (before),[7],1875
DPQVLEWLYKRLFSQM,P8_MyD88 Rank (after),[9],677
same,P8_MyD88 Rank (before),[10],2648
LVAHRFSKKMKIFATM,P3_MyD88 Rank (after),[4],621
same,P3_MyD88 Rank (before),[5],2315
DPQYRDWFYERLVSLP,P8_MyD88 Rank (after),[11],512
same,P8_MyD88 Rank (before),[12],2642
LFWDRLIYAVSDVASA,Rank (after),[15],111
same,Rank (before),[16],119
same,Population,[3],0.02%
DLVWDYLLPNLEGPAG,Population,[3],0.00886%
DHHLDLPRGKAIKPEILS,Population,[8],0.0032%
YFRNESEFIQEIVQWV,Rank (after),[15],118
same,Rank (before),[16],125
same,Population,[3],0.0162%
WAQDALLKILYAKETM,P8_MyD88 Rank (after),[4],614
same,P8_MyD88 Rank (before),[5],1562
LVAHEISKKMKIFATF,Population,[8],0.00291%
DPQDLVWFYKRLFSQM,Rank (after),[13],977
same,Rank (before),[14],2720
YAASPWWFDDIQQIQLFWD,P8_MyD88 Rank (after),[11],543
same,P8_MyD88 Rank (before),[12],1720
YAFTGHLHRYLVPRGL,P3_MyD88 Rank (after),[1],248
same,P3_MyD88 Rank (before),[2],1503
PQVVACFFQRLESMIL,Rank (after),[13],871
same,Rank (before),[14],3403
DFLNWFYERLVSLFL,P8_MyD88 Rank (after),[4],622
same,P8_MyD88 Rank (before),[5],2352
YTALTNRAFIPFVIM,P3_MyD88 Rank (after),[4],590
same,P3_MyD88 Rank (before),[5],1658
DPHDLEWVYERLVSLF,Rank (after),[13],913
same,Rank (before),[14],2603
